Measured values from patent US9386767B2, “Derivatives of dillapiol and related monolignans and use thereof” (UNIVERSITY OF OTTAWA, priority 2011, dated 2016).
Several values for one entry are separate records, joined by “and”; a condition that tells them apart may be missing. Equal entries are not always repeated. Where two headings read alike, the source gives them in different places.

Experiments:
CYP3A4 (BDGentest) = target: T1, CYP3A4 (BDGentest) (Homo sapiens, UniProt P08684); assay: New CYP3A4 bioassay with dibenzylfluorescein (DBF) substrate (Foster et al. 2011); type: biochemical; conditions: for IC50: human microsomes; for % Activity relative to dillapiol = 1: new CYP3A4 bioassay, inhibition relative to dillapiol
T1 construct: purchased BDGentest
T1 sequence (P08684 whole entry): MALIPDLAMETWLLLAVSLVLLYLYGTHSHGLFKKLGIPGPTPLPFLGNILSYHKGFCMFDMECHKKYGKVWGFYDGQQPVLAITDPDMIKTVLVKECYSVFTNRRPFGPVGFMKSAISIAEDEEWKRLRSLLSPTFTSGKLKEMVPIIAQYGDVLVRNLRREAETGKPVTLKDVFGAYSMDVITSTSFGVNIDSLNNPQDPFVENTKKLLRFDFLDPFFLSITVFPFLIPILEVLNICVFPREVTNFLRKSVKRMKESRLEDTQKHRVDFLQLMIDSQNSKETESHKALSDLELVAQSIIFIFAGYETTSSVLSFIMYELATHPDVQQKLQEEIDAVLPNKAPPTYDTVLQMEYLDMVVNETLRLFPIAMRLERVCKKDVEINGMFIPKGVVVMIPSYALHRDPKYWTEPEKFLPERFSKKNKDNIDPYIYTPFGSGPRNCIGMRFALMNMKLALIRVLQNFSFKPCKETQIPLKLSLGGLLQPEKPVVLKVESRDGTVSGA
Method: (§1) In the second set of experiments, new CYP3A4 enzyme inhibition assays were conducted with a designed set of analogs and newer method described by Foster et al. (J. Agric. Food Chem, 2011, 59(9):5159-5163). This assay using the substrate dibenzylfluorescein (DBF) is considered more representative of CYP3A4 activity as compared to the benzyloxyresorufin assay previously used (Budzinski et al., 2000, Phytomedicine, 7(4):273-282).
Aliquots (10 μL) of stock solutions of the undiluted products were screened for their ability to inhibit CYP3A4 (BDGentest) metabolism of the non-fluorescent dibenzylfluorescein (DBF) substrates to the fluorescent metabolite using an in vitro fluorometric microtiter plate assay (CytoFluor Series 4000 multi-well plate reader). Briefly, assays were performed with 10 μL of product in clear-bottom, opaque-welled microtiter plates (96 well, Corning Costar). Control and control blank wells contained 5% ethanol, and test and test blank wells contained the product. All wells tested contained distilled water, β-nicotinamide adenine dinucleotide phosphate, reduced form (NADPH, Sigma Chemicals), and the enzyme substrate DBF (final concentration of 1 μM/well), for a total reaction volume of 200 μL. Control and test wells also contained live isozyme, within human microsomes, in phosphate buffer solution (PBS; 0.5 M, pH 7.4), and control blank and test blank wells contained denatured isoenzyme in PBS. Fluorescence was measured at 485 nm excitation and 530 nm emission, with a gain of 50.

human cytochrome CYP3A4 = human cytochrome CYP3A4 (Homo sapiens, UniProt P08684); assay: CYP3A4 inhibition assay of dillapiol derivatives (earlier benzyloxyresorufin assay); type: biochemical; conditions: for Rel. Activity Dillapiol = 1.0: CYP3A4 inhibition relative to dillapiol
Chain of human cytochrome CYP3A4 (P08684 whole entry): as above
Method: A suite of dillapiol derivatives were synthesized and assayed for their capacity to inhibit human cytochrome CYP3A4. For each molecule, experimental IC50 values for CYP3A4 inhibition were determined. These IC50 values together with the log of the octanol-water partition coefficient (logP) and molecular refractivity (MR) are shown in Table 1, and were used as parameters to model a quantitative structure-activity relationship (QSAR). The resulting equations were used to guide the design of further derivatives with enhanced CYP3A4 inhibition.
as §1

[1] = DBF substrate 1 μM, read-out: IC50 (converted)
[2] = Table 1, CYP3A4 inhibition, read-out: IC50

Compound	IC50 (CYP3A4 (BDGentest); [1])	% Activity relative to dillapiol = 1 (CYP3A4 (BDGentest))	further results
COc1c(CCCOC(=O)c2ccc(Cl)cc2Cl)cc2c(c1OC)OCO2	1400 nM and 1430 nM	6.56	
COc1c(CCCOC(=O)c2ccc3c(c2)OCO3)cc2c(c1OC)OCO2	2630 nM	3.49	
CCCCCC(=O)OCCCc1cc2c(c(OC)c1OC)OCO2	3250 nM	2.82	
COc1c(CCCOCc2ccccc2)cc2c(c1OC)OCO2	6660 nM	1.38	
COc1c(CCCOC(=O)CCCc2ccccc2)cc2c(c1OC)OCO2	4140 nM	2.22	
COc1c(CCCOCc2ccc(F)cc2)cc2c(c1OC)OCO2	10300 nM	0.89	
COc1c(CCCOC(=O)c2ccc(Cl)cc2)cc2c(c1OC)OCO2	1560 nM	5.89	
COc1c(CCCOC(=O)/C=C/c2ccccc2)cc2c(c1OC)OCO2	2380 nM	3.86	
C/C=C(\C)C(=O)OCCCc1cc2c(c(OC)c1OC)OCO2	1550 nM	5.9	
COc1c(CCCOC(C)=O)cc2c(c1OC)OCO2	9220 nM and 9210 nM	1	
COc1c(CCCOC(=O)c2ccccc2Cl)cc2c(c1OC)OCO2	5270 nM	1.75	
COc1cc2c(cc1CCCOC(=O)/C=C/c1ccccc1)OCO2	4730 nM	1.94	
C=CCc1cc2c(cc1OCc1cc(OC)ccc1OC)OCO2	2150 nM	4.27	
C=CCc1cc2c(cc1OCc1ccccc1)OCO2	1440 nM and 1430 nM	6.37	
CCCc1cc2c(cc1OC)OCO2			IC50 (CYP3A4 (BDGentest); IC50, DBF substrate 1 μM): > 26000 nM
O=C(/C=C/c1ccccc1)OCCCc1cc2c(cc1OCc1ccccc1)OCO2	8000 nM and 7920 nM	1.125	
COc1c(CCCOC(=O)c2ccc([N+](=O)[O-])cc2)cc2c(c1OC)OCO2	> 13000 nM		
COc1c(CCCOC(=O)C(C)(C)C)cc2c(c1OC)OCO2	2780 nM and 2770 nM	3.3	
COc1c(CCCOC(=O)C2CCCCC2)cc2c(c1OC)OCO2	1900 nM	4.83	
OCCCc1cc2c(cc1OCc1ccccc1)OCO2	3000 nM	3	

Compound	IC50 (CYP3A4 (BDGentest); [1])	% Activity relative to dillapiol = 1 (CYP3A4 (BDGentest))	further results
COc1cc2c(cc1CCCO)OCO2	4050 nM and 4040 nM	2.25	
COc1c(CCCOC(=O)Cc2ccccc2)cc2c(c1OC)OCO2		4.83	IC50 (CYP3A4 (BDGentest); IC50, DBF substrate 1 μM): 1900 nM
O=C(CCCC/C=C/c1ccc2c(c1)OCO2)OCCCO	4100 nM and 4080 nM	2.2	
OCCCCc1ccc2c(c1)OCO2	> 26000 nM		
COc1c(CCCC(O)(c2ccccc2)c2ccccc2)cc2c(c1OC)OCO2	1060 nM	8.7	
COc1c(CC/C=C/C(=O)NC(C)C)cc2c(c1OC)OCO2	2100 nM	4.37	
C=CCc1cc2c(cc1OC)OCO2			IC50 (CYP3A4 (BDGentest); IC50, DBF substrate 1 μM): > 26000 nM
COc1c(CCCC(c2ccccc2)c2ccccc2)cc2c(c1OC)OCO2	> 20000 nM		
O=C(O)CCCC/C=C/c1ccc2c(c1)OCO2	> 20100 nM		
COc1c(CCC(C)O)cc2c(c1OC)OCO2 (centres unmarked)	> 20000 nM		
COc1c(CCCCO)cc2c(c1OC)OCO2	11600 nM	0.8	
O=C(OCCCc1cc2c(cc1OCc1ccccc1)OCO2)c1ccccc1	3900 nM and 3840 nM	2.3	
O=C(OCCCc1cc2c(cc1OCc1ccccc1)OCO2)c1ccc2c(c1)OCO2	1400 nM and 1380 nM	6.6	
C=CCc1cc2c(c(C(O)CCCCCCCC)c1OC)OCO2 (single isomer, unassigned) [Compound 7]			Rel. Activity Dillapiol = 1.0 (human cytochrome CYP3A4; Table 1): 2.2; IC50 (human cytochrome CYP3A4; [2]): 190 µM
C=CCc1cc2c(c(C(O)CCCCCCCC)c1OC)OCO2 (centres unmarked) [Compound 2]			CYP3A4 inhibition compared with dillapiol (in words) (human cytochrome CYP3A4; Table 1): at least four times lower than dillapiol; Rel. Activity Dillapiol = 1.0 (human cytochrome CYP3A4; Table 1): 15; IC50 (human cytochrome CYP3A4; [2]): 26 µM
C=CCc1cc2c(c(OCCCCCCCC)c1OC)OCO2 [Compound 3]			Rel. Activity Dillapiol = 1.0 (human cytochrome CYP3A4; Table 1): 1.3; IC50 (human cytochrome CYP3A4; [2]): 320 µM
C=CCc1cc2c(c(CO)c1OC)OCO2 [Compound 4]			Rel. Activity Dillapiol = 1.0 (human cytochrome CYP3A4; Table 1): 0.45; IC50 (human cytochrome CYP3A4; [2]): 900 µM
C=CCc1cc2c(c(COC)c1OC)OCO2 [Compound 5]			Rel. Activity Dillapiol = 1.0 (human cytochrome CYP3A4; Table 1): 1.3; IC50 (human cytochrome CYP3A4; [2]): 320 µM
C=CCc1cc2c(c(/C=C/C(=O)OC)c1OC)OCO2 [Compound 6]			Rel. Activity Dillapiol = 1.0 (human cytochrome CYP3A4; Table 1): 1.7; IC50 (human cytochrome CYP3A4; [2]): 240 µM
C=CCc1cc2c(c(C=O)c1OC)OCO2 [Compound 8]			Rel. Activity Dillapiol = 1.0 (human cytochrome CYP3A4; Table 1): 0.66; IC50 (human cytochrome CYP3A4; [2]): 620 µM

Compound	IC50 (CYP3A4 (BDGentest); [1])	% Activity relative to dillapiol = 1 (CYP3A4 (BDGentest))	further results
C=CCc1cc2c(c(CC=C)c1OC)OCO2 [Compound 9]			IC50 (human cytochrome CYP3A4): 810 µM; Rel. Activity Dillapiol = 1.0 (human cytochrome CYP3A4; Table 1): 2.0
C=CCc1cc2c(c(O)c1OC)OCO2 [Compound 10]			IC50 (human cytochrome CYP3A4): 1600 µM; Rel. Activity Dillapiol = 1.0 (human cytochrome CYP3A4; Table 1): 0.26
C=CCc1cc2c(c(CC=C)c1O)OCO2 [Compound 11]			Rel. Activity Dillapiol = 1.0 (human cytochrome CYP3A4; Table 1): 1.9; IC50 (human cytochrome CYP3A4; [2]): 210 µM
COc1c(CCCOC(=O)C(c2ccccc2)c2ccccc2)cc2c(c1OC)OCO2 [Compound 48]			CYP3A4 inhibition (in words) (CYP3A4 (BDGentest)): potent inhibitor
COc1ccc(OC)c(COc2cc3c(cc2CCCOC(=O)c2ccccc2)OCO3)c1 [Compound 50]			CYP3A4 inhibition (in words) (CYP3A4 (BDGentest)): strong CYP3A4 inhibitors
COc1c(C/C=C/Cc2cc3c(c(OC)c2OC)OCO3)cc2c(c1OC)OCO2 [Compound 56]	1800 nM	5.1	% Activity relative to dillapiol = 1 (CYP3A4 (BDGentest); listed as drawing 59): 5.1
OC(CCCC/C=C/c1ccc2c(c1)OCO2)(c1ccccc1)c1ccccc1 [Compound 59]	540 nM and 517 nM	17	
COc1cc2c(cc1CCCOC(=O)C(c1ccccc1)c1ccccc1)OCO2 [Compound 61]	470 nM	19.5	CYP3A4 inhibition (in words) (CYP3A4 (BDGentest)): strong CYP3A4 inhibitors
COc1cc2c(cc1CCCOC(=O)c1ccccc1)OCO2 [Compound 63]			CYP3A4 inhibition (in words) (CYP3A4 (BDGentest)): strong CYP3A4 inhibitors
COc1ccc(OC)c(COc2cc3c(cc2CCCOC(=O)C(c2ccccc2)c2ccccc2)OCO3)c1 [Compound 69]			CYP3A4 inhibition (in words) (CYP3A4 (BDGentest)): strong CYP3A4 inhibitors
O=C(OCCCc1cc2c(cc1OCc1ccccc1)OCO2)C(c1ccccc1)c1ccccc1 [Compound 70]		4	CYP3A4 inhibition (in words) (CYP3A4 (BDGentest)): strong CYP3A4 inhibitors
C=CCc1cc2c(cc1O)OCO2 [drawing 54]	> 28100 nM		
COc1c(CCCOC(=O)C(c2ccccc2)c2ccccc2)cc2c(c1OC)OCO2 [drawing 58]	434 nM	21.15	
COc1ccc(OC)c(COc2cc3c(cc2CCCOC(=O)c2ccccc2)OCO3)c1 [drawing 60]	360 nM and 355 nM	25.5	
COc1c(C/C=C/Cc2cc3c(c(OC)c2OC)OCO3)cc2c(c1OC)OCO2 [drawing 66]	1440 nM	6.3	
COc1cc2c(cc1CCCOC(=O)c1ccccc1)OCO2 [drawing 73]	2070 nM	4.4	
COc1ccc(OC)c(COc2cc3c(cc2CCCOC(=O)C(c2ccccc2)c2ccccc2)OCO3)c1 [drawing 79]	230 nM	41	
O=C(OCCCc1cc2c(cc1OCc1ccccc1)OCO2)C(c1ccccc1)c1ccccc1 [drawing 80]	620 nM and 624 nM	14	
